Reference: patent US11331396B2, “Development of injectable fiducial markers for image guided radiotherapy with dual MRI and CT visibility” (TECHNICAL UNIVERSITY OF DENMARK, priority 2017, dated 2022)

Experiment: In-vitro confocal microscopy of markers containing fluorescent amphiphiles in PBS
Assay type: physicochemical
Details: LAP:GTH with co-solvent (5% PC or 10% EtOH)
Procedure: DOPE-RhB was dissolved in EtOH or triglycerides and added to the formulations in amounts resulting in the desired final concentrations (˜1.3*10^−3 ug/uL) in formulations consisting of lactose acetate:propionate 1:1/lactose isobutyrate co-formulated with either 25 wt % EtOH or 40 wt % triglyceride (GTO/GTH), with or without 10 wt % EtOH or 5 wt % PC (˜240 uL formulations in total). The DOPE-RhB solutions were made from a motherstock of 1 mg/mL DOPE-RhB in EtOH with serial dilution into EtOH/triglyceride (GTO/GTH). The injected formulations were imaged in PBS in 8-well microscope slides under the confocal microscope. […]
Laser Scanning Confocal Microscopy was performed using a Leica TCS SP5 Scanning Laser Confocal Microscope operated using a 61× wet objective and a 561 nm excitation DPPS Laser. Samples (˜5-10 uL) were prepared in 8 well microscope slides containing PBS buffer and imaged on the same day to study the distribution of fluorescence signal within the material. In case of Rhodamine B, emission was detected between 575 and 674 nm, while in case of carboxy fluorescein emission was detected between 480 and 580 nm. […]

CCCCCCCC/C=C\CCCCCCCC(=O)OC[C@H](COP(=O)(O)OCCNC(=O)c1ccc2c(c1)C(=O)OC21c2ccc(O)cc2Oc2cc(O)ccc21)OC(=O)CCCCCCC/C=C\CCCCCCCC.N.N [DOPE-CF]
Distribution of fluorophore labeled lipid in the marker: clearly higher distribution of DOPE-RhB and DOPE-CF in the rim of the injected formulation
